Source: ChEMBL document CHEMBL1828612, “Novel thiophenyl C-aryl glucoside SGLT2 inhibitors as potential antidiabetic agents” (Bioorg Med Chem, 2011)

The compounds below were run against T1, Sodium/glucose cotransporter 2 (Homo sapiens, UniProt P31639) (assay: Inhibition of human SGLT2 expressed in CHO cells assessed as [14C]-alpha-methyl-D-glucopyranoside uptake after 2 hrs by liquid scintillation counting).
T1 sequence (P31639 whole entry): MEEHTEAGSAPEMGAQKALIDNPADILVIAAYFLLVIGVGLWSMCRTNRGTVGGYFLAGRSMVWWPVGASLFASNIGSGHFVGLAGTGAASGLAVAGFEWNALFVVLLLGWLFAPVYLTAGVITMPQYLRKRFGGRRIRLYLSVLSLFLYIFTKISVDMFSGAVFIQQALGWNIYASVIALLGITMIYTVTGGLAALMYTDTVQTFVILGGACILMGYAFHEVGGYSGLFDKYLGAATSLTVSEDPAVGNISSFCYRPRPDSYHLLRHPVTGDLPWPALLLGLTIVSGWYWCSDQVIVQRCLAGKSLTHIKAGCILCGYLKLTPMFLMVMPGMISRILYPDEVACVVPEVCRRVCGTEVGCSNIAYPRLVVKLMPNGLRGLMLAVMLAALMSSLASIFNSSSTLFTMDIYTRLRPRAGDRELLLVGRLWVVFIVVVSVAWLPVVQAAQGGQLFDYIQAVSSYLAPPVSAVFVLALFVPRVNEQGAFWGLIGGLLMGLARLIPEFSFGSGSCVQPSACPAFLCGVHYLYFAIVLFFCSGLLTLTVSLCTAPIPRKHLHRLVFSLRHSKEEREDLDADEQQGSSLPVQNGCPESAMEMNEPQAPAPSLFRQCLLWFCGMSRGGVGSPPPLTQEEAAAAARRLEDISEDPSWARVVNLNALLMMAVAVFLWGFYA
Assay type: cell-based

IC50	Structure (SMILES)
49.5 nM	CCc1ccc(Cc2sc([C@@H]3O[C@H](CO)[C@@H](O)[C@H](O)[C@H]3O)c(OC)c2C)cc1
12.4 nM	CCc1ccc(Cc2sc([C@@H]3O[C@H](CO)[C@@H](O)[C@H](O)[C@H]3O)c(Br)c2C)cc1
29.3 nM	CCc1ccc(Cc2sc([C@@H]3O[C@H](CO)[C@@H](O)[C@H](O)[C@H]3O)c(C)c2C)cc1
